Calls of active or inactive are those of the source. No cut-off for these calls is given here.
Tests used:
A549 [1] = experiment: Inhibition of TGF-beta1-induced cell invasion in human A549 cells at 2.5 to 3 uM measured after 48 hrs by Matrigel invasion assay; format: functional, cell-based
A549 [2] = experiment: Antiproliferative activity against human A549 cells assessed as cell survival rate at 0.5 uM incubated for 24 hrs by CCK8 assay; format: functional; settings: A549, 24 h, read-out: Survival
A549 [3] = experiment: Antiproliferative activity against human A549 cells assessed as cell survival rate at 1 uM incubated for 24 hrs by CCK8 assay; format: functional; settings: A549, 24 h, read-out: Survival
A549 [4] = experiment: Antiproliferative activity against human A549 cells assessed as cell survival rate at 2 uM incubated for 24 hrs by CCK8 assay; format: functional; settings: A549, 24 h, read-out: Survival
A549 [5] = experiment: Antiproliferative activity against human A549 cells assessed as cell survival rate at 2.5 uM incubated for 24 hrs by CCK8 assay; format: functional; settings: A549, 24 h, read-out: Survival
A549 [6] = experiment: Antiproliferative activity against human A549 cells assessed as cell survival rate at 3 uM incubated for 24 hrs by CCK8 assay; format: functional; settings: A549, 24 h, read-out: Survival
A549 [7] = experiment: Antiproliferative activity against human A549 cells assessed as inhibition of cell growth at 4 uM incubated for 24 to 48 hrs by CCK8 assay; format: functional, cell-based
A549 [8] = experiment: Inhibition of TGF-beta1-induced epithelial-mesenchymal transition in human A549 cells assessed as suppression of cell elongation and spindle like shapes pre-incubated for 2 hrs at 2.5 to 3 uM for 2 hrs followed by TGF-beta1 stimulation for 24 hrs; format: functional, cell-based
A549 [9] = experiment: Inhibition of TGF-beta1-induced epithelial-mesenchymal transition in human A549 cells assessed as increase in E-cadherin expression pre-incubated for 2 hrs at 2.5 to 3 uM for 2 hrs followed by TGF-beta1 stimulation for 24 hrs by Western blot method; format: functional, cell-based
A549 [10] = experiment: Inhibition of TGF-beta1-induced epithelial-mesenchymal transition in human A549 cells assessed as decrease in N-cadherin expression pre-incubated for 2 hrs at 2.5 to 3 uM for 2 hrs followed by TGF-beta1 stimulation for 24 hrs by Western blot method; format: functional, cell-based
A549 [11] = experiment: Inhibition of TGF-beta1-induced epithelial-mesenchymal transition in human A549 cells assessed as increase in E-cadherin gene expression at 2.5 to 3 uM for 2 hrs followed by TGF-beta1 stimulation for 24 hrs by qRT-PCR method; format: functional, cell-based
A549 [12] = experiment: Inhibition of TGF-beta1-induced epithelial-mesenchymal transition in human A549 cells assessed as reduction in N-cadherin gene expression at 2.5 to 3 uM for 2 hrs followed by TGF-beta1 stimulation for 24 hrs by qRT-PCR method; format: functional, cell-based
A549 [13] = experiment: Inhibition of TGF-beta1-induced epithelial-mesenchymal transition in human A549 cells assessed as reduction in SNAI2 gene expression at 2.5 to 3 uM for 2 hrs followed by TGF-beta1 stimulation for 24 hrs by qRT-PCR method; format: functional, cell-based
A549 [14] = experiment: Inhibition of TGF-beta1-induced epithelial-mesenchymal transition in human A549 cells assessed as reduction in vimentin gene expression at 2.5 to 3 uM for 2 hrs followed by TGF-beta1 stimulation for 24 hrs by qRT-PCR method; format: functional, cell-based
A549 [15] = experiment: Inhibition of TGF-beta1-induced epithelial-mesenchymal transition in human A549 cells assessed as reduction in Smad2 gene expression at 2.5 to 3 uM for 2 hrs followed by TGF-beta1 stimulation for 24 hrs by qRT-PCR method; format: functional, cell-based
A549 [16] = experiment: Inhibition of TGF-beta1-induced epithelial-mesenchymal transition in human A549 cells assessed as reduction in TGFbeta gene expression at 2.5 to 3 uM for 2 hrs followed by TGF-beta1 stimulation for 24 hrs by qRT-PCR method; format: functional, cell-based
A549 [17] = experiment: Inhibition of TGF-beta1-induced epithelial-mesenchymal transition in human A549 cells assessed as reduction in TGFbetaR1 gene expression at 2.5 to 3 uM for 2 hrs followed by TGF-beta1 stimulation for 24 hrs by qRT-PCR method; format: functional, cell-based
A549 [18] = experiment: Inhibition of TGF-beta1-induced epithelial-mesenchymal transition in human A549 cells assessed as reduction in Snail gene expression at 2.5 to 3 uM for 2 hrs followed by TGF-beta1 stimulation for 24 hrs by qRT-PCR method; format: functional, cell-based
A549 [19] = experiment: Inhibition of TGF-beta1-induced epithelial-mesenchymal transition in human A549 cells assessed as reduction in Snail protein expression at 2.5 to 3 uM for 2 hrs followed by TGF-beta1 stimulation for 24 hrs by Western blot method; format: functional, cell-based
A549 [20] = experiment: Inhibition of TGF-beta1-induced cell migration in human A549 cells at 2.5 to 3 uM treated along with TGF-beta1 stimulation following cell layer cell layer scratching measured after 24 hrs; format: functional, cell-based
A549 [21] = experiment: Inhibition of TGF-beta1-induced MMP2 gene expression in human A549 cells at 2.5 to 3 uM for 2 hrs followed by TGF-beta1 stimulation for 24 hrs by qRT-PCR method; format: functional, cell-based
A549 [22] = experiment: Inhibition of TGF-beta1-induced MMP9 gene expression in human A549 cells at 2.5 to 3 uM for 2 hrs followed by TGF-beta1 stimulation for 24 hrs by qRT-PCR method; format: functional, cell-based
[23] = target: 72 kDa type IV collagenase (Homo sapiens) (UniProt P08253); experiment: Inhibition of TGF-beta1-induced MMP2 activity in human A549 cells at 2.5 to 3 uM for 2 hrs followed by TGF-beta1 stimulation for 24 hrs by gelatin zymography; format: cell-based
[24] = target: Matrix metalloproteinase-9 (Homo sapiens) (UniProt P14780); experiment: Inhibition of TGF-beta1-induced MMP9 activity in human A549 cells at 2.5 to 3 uM for 2 hrs followed by TGF-beta1 stimulation for 24 hrs by gelatin zymography; format: cell-based
[25] = target: Mothers against decapentaplegic homolog 2 (Homo sapiens) (UniProt Q15796); experiment: Inhibition of TGF-beta1-induced Smad2 phosphorylation in human A549 cells at 2.5 to 3 uM for 2 hrs followed by TGF-beta1 stimulation for 24 hrs by Western blot method; format: cell-based
[26] = target: MAP kinase p38 (Homo sapiens) (UniProt O15264+Q15759+Q16539+P53778); experiment: Inhibition of TGF-beta1-induced p38 phosphorylation in human A549 cells at 2.5 to 3 uM for 2 hrs followed by TGF-beta1 stimulation for 24 hrs by Western blot method; format: cell-based

Sequence of Matrix metalloproteinase-9 (Homo sapiens) (P14780 whole entry): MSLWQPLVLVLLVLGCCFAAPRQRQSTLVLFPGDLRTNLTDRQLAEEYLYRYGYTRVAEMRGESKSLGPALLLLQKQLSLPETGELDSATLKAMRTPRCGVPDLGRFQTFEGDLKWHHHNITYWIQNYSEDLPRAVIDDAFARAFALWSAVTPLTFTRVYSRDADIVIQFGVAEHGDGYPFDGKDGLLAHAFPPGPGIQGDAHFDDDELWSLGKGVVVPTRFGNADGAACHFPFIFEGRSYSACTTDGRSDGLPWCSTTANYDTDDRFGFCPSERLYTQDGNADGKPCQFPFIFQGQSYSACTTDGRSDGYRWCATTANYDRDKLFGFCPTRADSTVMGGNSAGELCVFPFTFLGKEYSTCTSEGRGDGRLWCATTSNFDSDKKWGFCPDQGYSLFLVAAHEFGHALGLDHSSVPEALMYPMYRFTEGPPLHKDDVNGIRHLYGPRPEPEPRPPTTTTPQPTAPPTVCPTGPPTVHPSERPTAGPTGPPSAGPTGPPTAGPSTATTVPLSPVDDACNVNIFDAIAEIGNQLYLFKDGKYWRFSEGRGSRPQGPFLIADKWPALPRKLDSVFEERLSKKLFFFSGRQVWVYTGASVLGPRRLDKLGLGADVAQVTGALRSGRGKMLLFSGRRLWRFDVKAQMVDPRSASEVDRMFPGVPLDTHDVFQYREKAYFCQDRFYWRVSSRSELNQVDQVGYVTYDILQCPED
Sequence of Mothers against decapentaplegic homolog 2 (Homo sapiens) (Q15796 whole entry): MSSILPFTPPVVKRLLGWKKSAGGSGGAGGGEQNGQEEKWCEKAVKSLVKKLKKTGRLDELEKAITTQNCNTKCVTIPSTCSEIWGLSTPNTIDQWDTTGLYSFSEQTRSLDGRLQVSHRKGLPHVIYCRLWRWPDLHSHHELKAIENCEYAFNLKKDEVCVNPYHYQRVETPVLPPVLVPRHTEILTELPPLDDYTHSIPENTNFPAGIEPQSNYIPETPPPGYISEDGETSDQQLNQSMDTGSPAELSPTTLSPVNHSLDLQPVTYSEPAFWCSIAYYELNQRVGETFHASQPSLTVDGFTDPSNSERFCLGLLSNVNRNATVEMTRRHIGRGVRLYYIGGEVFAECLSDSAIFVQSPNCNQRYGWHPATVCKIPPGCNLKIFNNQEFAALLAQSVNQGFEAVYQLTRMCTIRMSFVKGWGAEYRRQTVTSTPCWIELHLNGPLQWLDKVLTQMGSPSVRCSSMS
Sequence of 72 kDa type IV collagenase (Homo sapiens) (P08253 110-660 limits assumed): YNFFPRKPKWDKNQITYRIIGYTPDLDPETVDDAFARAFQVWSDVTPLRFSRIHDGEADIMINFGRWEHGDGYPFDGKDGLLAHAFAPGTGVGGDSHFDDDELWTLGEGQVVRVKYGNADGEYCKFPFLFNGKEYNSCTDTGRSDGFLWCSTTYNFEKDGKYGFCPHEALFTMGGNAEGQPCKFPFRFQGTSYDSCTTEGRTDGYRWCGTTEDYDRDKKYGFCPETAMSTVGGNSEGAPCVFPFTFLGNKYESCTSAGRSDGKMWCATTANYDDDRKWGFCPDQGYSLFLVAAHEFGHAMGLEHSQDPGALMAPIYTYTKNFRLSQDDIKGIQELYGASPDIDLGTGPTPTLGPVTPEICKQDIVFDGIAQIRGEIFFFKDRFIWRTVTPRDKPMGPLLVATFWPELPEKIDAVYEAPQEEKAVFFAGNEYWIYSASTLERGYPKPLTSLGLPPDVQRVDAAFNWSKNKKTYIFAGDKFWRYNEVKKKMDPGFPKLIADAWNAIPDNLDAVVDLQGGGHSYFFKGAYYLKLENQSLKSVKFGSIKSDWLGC

In the case of `C[C@@H]1CC[C@@]2(OC1)O[C@H]1C[C@H]3[C@@H]4CC=C5C[C@@H](O[C@@H]6O[C@H](CO)[C@@H](O[C@@H]7O[C@@H](C)[C@H](O)[C@@H](O)[C@H]7O)[C@H](O)[C@H]6O[C@@H]6O[C@@H](C)[C@H](O)[C@@H](O)[C@H]6O)CC[C@]5(C)[C@H]4CC[C@]3(C)[C@H]1[C@@H]2C` [DIOSCIN], the inhibition (A549 [1]) is reported as “Active”, the viability at 0.5 µM (A549 [2]) is reported as over 80% and the viability at 1 µM (A549 [3]) is reported as over 80%. The viability at 2 µM (A549 [4]) was over 80%, the viability at 2.5 µM (A549 [5]) was over 80% and the viability at 3 µM (A549 [6]) was over 80%. The “growth inhibition (GI)” value (A549 [7]) was “Active”, the inhibition (A549 [8]) was “Active” and the inhibition (A549 [9]) was “Active”. The inhibition (A549 [10]) was “Active”, the inhibition (A549 [11]) was “Dose-dependent effect” and the inhibition (A549 [12]) was “Dose-dependent effect”. For the same compound, the inhibition (A549 [13]) was “Dose-dependent effect”, the inhibition (A549 [14]) was “Dose-dependent effect” and the inhibition (A549 [15]) was “Dose-dependent effect”. The inhibition (A549 [16]) was “Dose-dependent effect”, the inhibition (A549 [17]) was “Dose-dependent effect” and the inhibition (A549 [18]) was “Dose-dependent effect”. For the same compound, the inhibition (A549 [19]) was “Dose-dependent effect”, the inhibition (A549 [20]) was “Dose-dependent effect” and the inhibition (A549 [21]) was “Dose-dependent effect”. For the same compound, the inhibition (A549 [22]) was “Dose-dependent effect”, the inhibition [23] was “Active” and the inhibition [24] was “Active”. For the same compound, the inhibition [25] was “Dose-dependent effect” and the inhibition [26] was “Active”.

— ChEMBL document CHEMBL4033741, “Dioscin suppresses TGF-β1-induced epithelial-mesenchymal transition and suppresses A549 lung cancer migration and invasion” (2017)
